# In patent publication US7109354B2, “Thiophene amidines, compositions thereof, and methods of treating complement-mediated diseases and conditions” (3-Dimensional Pharmaceuticals, Inc., priority 2002, dated 2006):
# Structures can show the parent of a compound that is named as a salt.
# Target: T1, Activated human C1s (Homo sapiens, UniProt P09871)
# T1 construct: purchased Calbiochem (La Jolla, Calif.)
# T1 sequence (P09871 438-688 limits assumed): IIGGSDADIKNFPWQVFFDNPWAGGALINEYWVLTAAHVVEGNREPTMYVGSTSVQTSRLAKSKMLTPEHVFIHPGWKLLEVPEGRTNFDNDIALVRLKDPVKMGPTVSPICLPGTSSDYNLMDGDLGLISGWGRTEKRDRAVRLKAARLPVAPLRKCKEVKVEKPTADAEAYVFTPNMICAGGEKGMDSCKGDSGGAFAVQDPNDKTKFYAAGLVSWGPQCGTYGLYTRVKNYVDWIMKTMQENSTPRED
# T1 sequence (P09871 16-437 partner limits assumed): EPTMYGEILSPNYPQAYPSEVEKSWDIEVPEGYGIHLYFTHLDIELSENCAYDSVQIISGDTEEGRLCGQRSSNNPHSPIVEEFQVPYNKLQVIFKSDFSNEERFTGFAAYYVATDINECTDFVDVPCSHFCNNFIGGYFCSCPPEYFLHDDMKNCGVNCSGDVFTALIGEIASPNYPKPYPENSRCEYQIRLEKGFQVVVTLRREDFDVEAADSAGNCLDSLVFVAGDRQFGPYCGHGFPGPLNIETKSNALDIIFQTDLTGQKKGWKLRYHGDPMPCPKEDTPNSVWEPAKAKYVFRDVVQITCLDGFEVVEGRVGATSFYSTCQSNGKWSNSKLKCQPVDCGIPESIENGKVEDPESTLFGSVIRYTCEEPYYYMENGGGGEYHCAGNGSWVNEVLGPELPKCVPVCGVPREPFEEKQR
# Test: In vitro inhibition of C1s (Ki determination, C1s-catalyzed hydrolysis of Z-Gly-Arg-S-Bzl, DTNB readout)
# Type: biochemical
# Conditions: substrate Z-Gly-Arg-S-Bzl 45 μM, DTNB 200 μM, C1s 2.3 nM, pH 7.5, 37° C., absorbance at 405 nm
row,Compound,Ki [nM]
1,"COc1cc(C)c(-c2cccc(S(=O)(=O)c3cc(C(=N)N)sc3SC)c2)c(COCC(=O)O)c1 [Example 192, [3′-(5-Carbamimidoyl-2-methylsulfanyl-thiophene-3-sulfonyl)-4-methoxy-6-methyl-biphenyl-2-ylmethoxy]-acetic acid trifluoroacetate]",6 to 23
2,"CSc1sc(C(=N)N)cc1S(=O)(=O)c1cccc(-c2ccccc2O)c1 [Example 34, 4-(2′-Hydroxy-biphenyl-3-sulfonyl)-5-methylsulfanyl-thiophene-2-carboxamidine trifluoroacetate]",6 to 23
3,"CSc1sc(C(=N)N)cc1S(=O)(=O)c1cccc(-c2cc(CO)ccc2C)c1 [Example 7, 4-(5′-Hydroxymethyl-2′-methyl-biphenyl-3-sulfonyl)-5-methylsulfanyl-thiophene-2-carboxamidine trifluoroacetate]",6 to 23
4,"CSc1sc(C(=N)N)cc1S(=O)(=O)c1cccc(-c2c(C)cc(NC(=N)N)cc2[N+](=O)[O-])c1 [Example 236, 4-(4′-Guanidino-2′-methyl-6′-nitro-biphenyl-3-sulfonyl)-5-methylsulfanyl-thiophene-2-carboxamidine bis-trifluoroacetate]",6 to 23
5,"CSc1sc(C(=N)N)cc1S(=O)(=O)c1cccc(-c2c(C)cccc2NC(=O)NCCc2ccccc2)c1 [Example 242, 4-[2′-Methyl-6′-(3-phenethyl-ureido)-biphenyl-3-sulfonyl]-5-methylsulfanyl-thiophene-2-carboxamidine trifluoroacetate]",6 to 23
6,"CSc1sc(C(=N)N)cc1S(=O)(=O)c1cccc(-c2cc(C)cc(C)c2)c1 [Example 75, 4-(3′,5′-Dimethyl-biphenyl-3-sulfonyl)-5-methylsulfanyl-thiophene-2-carboxamidine]",6 to 23
7,"CSc1sc(C(=N)N)cc1S(=O)(=O)c1cccc(-c2cncnc2)c1 [Example 71, 5-Methylsulfanyl-4-(3-pyrimidin-5-yl-benzenesulfonyl)-thiophene-2-carboxamidine]",6 to 23
8,"CSc1sc(C(=N)N)cc1S(=O)(=O)c1cccc(-c2cccc(-c3ccccc3)c2)c1 [Example 65, 5-Methylsulfanyl-4-([1,1′;3′,1″]terphenyl-3-sulfonyl)-thiopbene-2-carboxamidine]",6 to 23
9,"CSc1sc(C(=N)N)cc1S(=O)(=O)c1cccc(-c2cccc(C(C)=O)c2)c1 [Example 101, 4-(3′-acetyl-biphenyl-3-sulfonyl)-5-methylsulfanyl-thiophene-2-carboxamidine]",6 to 23
10,"COC(=O)CCSCC(=O)Nc1cc(NC(=N)N)cc(C)c1-c1cccc(S(=O)(=O)c2cc(C(=N)N)sc2SC)c1 [Example 238, 3-{[3′-(5-Carbamimidoyl-2-methylsulfanyl-thiophene-3-sulfonyl)-4-guanidino-6-methyl-biphenyl-2-ylcarbamoyl]-methylsulfanyl}-propionic acid methyl ester bis-trifluoroacetate]",6 to 23
11,"CSc1sc(C(=N)N)cc1S(=O)(=O)c1cccc(-c2cccc(C)c2C)c1 [Example 99, 4-(2′,3′-dimethyl-biphenyl-3-sulfonyl)-5-methylsulfanyl-thiophene-2-carboxamidine]",6 to 23
12,"CSc1sc(C(=N)N)cc1S(=O)(=O)c1cccc(-c2ccc(F)cc2)c1 [Example 81, 4-(4′-Fluoro-biphenyl-3-sulfonyl)-5-methylsulfanyl-thiophene-2-carboxamidine]",6 to 23
13,"CSc1sc(C(=N)N)cc1S(=O)(=O)c1cccc(-c2c(C)cc(NC(=O)NCCCS(C)(=O)=O)cc2NC(=O)NCCCS(C)(=O)=O)c1 [Example 294, 4-{4′,6′-Bis-[3-(3-methanesulfonyl-propyl)-uredo]-2′-methyl-biphenyl-3-sulfonyl}-5-methylsulfanyl-thiophene-2-carboxamidine trifluoroacetate]",6 to 23
14,"CSc1sc(C(=N)N)cc1S(=O)(=O)c1cccc(-c2cc(-c3ccccc3)ccc2O)c1 [Example 1, 4-(4′-Hydroxy-[1,1′;3′,1′]terphenyl-3′-sulfonyl)-5-methylsulfanyl-thiophene-2-carboxamidine trifluoroacetate]",6 to 23
